# Measured values: patent US20240343704A1, “HALO-SUBSTITUTED AMINO PYRIDINE COMPOUNDS AS INHIBITORS OF THE HAEMATOPOIETIC PROGENITOR KINASE 1 (HPK1)” (priority 2021, published 2024)
# Molecular target: T1, Recombinant (1-346) HPK1 (h) (Homo sapiens, UniProt Q92918)
# T1 construct: Recombinant (1-346) HPK1 (h) is incubated with 8 mM MOPS pH 7.0
# T1 sequence (Q92918 1-346): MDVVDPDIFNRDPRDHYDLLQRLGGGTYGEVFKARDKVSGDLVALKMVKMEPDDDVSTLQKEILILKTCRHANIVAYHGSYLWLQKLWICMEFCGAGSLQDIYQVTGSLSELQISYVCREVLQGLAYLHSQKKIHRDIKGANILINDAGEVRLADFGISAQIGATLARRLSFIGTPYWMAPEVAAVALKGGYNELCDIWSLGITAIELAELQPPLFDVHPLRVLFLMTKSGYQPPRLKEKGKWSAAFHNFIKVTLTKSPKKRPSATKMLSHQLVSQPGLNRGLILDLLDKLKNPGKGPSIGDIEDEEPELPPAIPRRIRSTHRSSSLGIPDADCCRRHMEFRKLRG
# Assay: HPK1 Human STE Kinase Enzymatic Radiometric Assay
# Assay type: biochemical
# Conditions: read-out: HPK1 IC50 nM Range*
# Method: A stock solution of 10 mM of test compound is prepared in DMSO. The compound plate was prepared by 3-fold and 9-point serial dilutions. […] The reaction is initiated by The addition of the Mg/ATP mix. After incubation for 40 minutes at RT, the reaction is stopped by the addition of phosphoric acid to a concentration of 0.5%.
row,IC50 [nM],Compound
1,> 1000,"CC(C)N1CCN(c2ccc(-c3ccc(Nc4ccc5c(c4)CCNC5=O)nc3F)cc2)CC1 [I-639, 6-((6-fluoro-5-(4-(4-isoproylpiperazin-1-yl)phenyl)pyridin-2-yl)amino)-3,4-dihydroisoquinolin-1(2H)-one]"
2,0.1 to 10,"CN1CCOC2(C1)CN(c1ccc(-c3cc(-c4cc5c(cc4F)C(=O)NCC5)c(N)nc3F)cc1)C2 [I-539, 6-(2-amino-6-fluoro-5-(4-(8-methyl-5-oxa-2,8-diazaspiro[3.5]nonan-2-yl)phenyl)pyridin-3-yl)-7-fluoro-3,4-dihydroisoquinolin-1(2H)-one]"
3,101 to 1000,"Cc1nc2cc(-c3cc(-c4ccc(N5CCN(C(C)C)CC5)cc4)c(F)nc3N)ccc2c(=O)n1N [I-465, 3-amino-7-(2-amino-6-fluoro-5-(4-(4-isopropylpiperazin-1-yl)phenyl)pyridin-3-yl)-2-methylquinazolin-4(3H)-one]"
4,0.1 to 10,"CO[C@H]1CCN(Cc2nc(-c3cc(-c4cc5c(cc4F)C(=O)NCC5)c(N)nc3F)ccc2N2CCOCC2)C1 [I-585, (S)-6-(6′-amino-2-fluoro-6-((3-methoxypyrrolidin-1-yl)methyl)-5-morpholino-[2,3′-bipyridin]-5′-yl)-7-fluoro-3,4-dihydroisoquinolin-1(2H)-one]"
5,11 to 100,"COC1CCN(Cc2cc(-c3cc(-c4ccc5c(c4)CCNC5=O)c(N)nc3F)ccc2C2CCOCC2)CC1 [I-540, 6-(2-amino-6-fluoro-5-(3-((4-methoxypiperidin-1-yl)methyl)-4-(tetrahydro-2H-pyran-4-yl)phenyl)pyridin-3-yl)-3,4-dihydroisoquinolin-1(2H)-one]"
6,11 to 100,"COC1CCN(Cc2cc(-c3cc(-c4cc5c(cc4F)C(=O)NCC5)c(N)nc3F)ccc2C2CCOCC2)CC1 [I-541, 6-(2-amino-6-fluoro-5-(3-((4-methoxypiperidin-1-yl)methyl)-4-(tetrahydro-2H-pyran-4-yl)phenyl)pyridin-3-yl)-7-fluoro-3,4-dihydroisoquinolin-1(2H)-one]"
7,11 to 100,"Cc1[nH]c(=O)c2c(F)cc(-c3cc(-c4ccc(C5CCOCC5)c(CN(C)C)c4)c(F)nc3N)cc2c1F [I-535, 6-(2-amino-5-(3-((dimethylamino)methyl)-4-(tetrahydro-2H-pyran-4-yl)phenyl)-6-fluoropyridin-3-yl)-4,8-difluoro-3-methylisoquinolin-1(2H)-one]"
8,0.1 to 10,"CN(C)Cc1cc(-c2cc(-c3ccc4c(c3)CCNC4=O)c(N)nc2F)ccc1N1CCN(C(=O)OC(C)(C)C)CC1 [I-442, tert-butyl 4-(4-(6-amino-2-fluoro-5-(1-oxo-1,2,3,4-tetrahydroisoquinolin-6-yl)pyridin-3-yl)-2-((dimethylamino)methyl)phenyl)piperazine-1-carboxylate]"
9,0.1 to 10,"CO[C@H]1CCN(Cc2nc(-c3cc(-c4ccc5c(c4)CCNC5=O)c(N)nc3F)ccc2N2CCOCC2)C1 [I-584, (S)-6-(6′-amino-2-fluoro-6-((3-methoxypyrrolidin-1-yl)methyl)-5-morpholino-[2,3′-bipyridin]-5′-yl)-3,4-dihydroisoquinolin-1(2H)-one]"
10,11 to 100,"Cc1nc2cc(-c3cc(-c4ccc([C@]56C[C@H]5CN(C)C6)cc4)c(F)nc3N)ccc2c(=O)[nH]1 [I-468, 7-(2-amino-6-fluoro-5-(4-((1S,5R)-3-methyl-3-azabicyclo[3.1.0]hexan-1-yl)phenyl)pyridin-3-yl)-2-methylquinazolin-4(3H)-one]"
11,0.1 to 10,"Nc1nc(F)c(-c2ccc(N3CCN(CC4CC4)CC3)cc2)cc1-c1cc(F)c2c(c1)OCCNC2=O [I-635, 8-(2-amino-5-(4-(4-(cyclopropylmethyl)piperazin-1-yl)phenyl)-6-fluoropyridin-3-yl)-6-fluoro-3,4-dihydrobenzo[f][1,4]oxazepin-5(2H)-one]"
12,11 to 100,"Cc1cc2cc(-c3cc(-c4ccc(N5CCN(C(C)C)CC5)cc4)c(F)nc3N)c(F)cc2c(=O)[nH]1 [I-587, 6-(2-amino-6-fluoro-5-(4-(4-isopropylpiperazin-1-yl)phenyl)pyridin-3-yl)-7-fluoro-3-methylisoquinolin-1(2H)-one]"
13,0.1 to 10,"CN(C)Cc1nc(-c2cc(-c3ccc4c(=O)[nH]cc(F)c4c3)c(N)nc2F)ccc1N1CCOCC1 [I-589, 6-(6′-amino-6-((dimethylamino)methyl)-2′-fluoro-5-morpholino-[2,3′-bipyridin]-5′-yl)-4-fluoroisoquinolin-1(2H)-one]"
14,0.1 to 10,"CCN(C)Cc1nc(-c2cc(-c3ccc4c(c3)CCNC4=O)c(N)nc2F)ccc1C1CCOCC1 [I-603, 6-(6′-amino-6-((ethyl(methyl)amino)methyl)-2′-fluoro-5-(tetrahydro-2H-pyran-4-yl)-[2,3′-bipyridin]-5′-yl)-3,4-dihydroisoquinolin-1(2H)-one]"
15,0.1 to 10,"CC(C)N1CCN(c2ccc(-c3cc(-c4cc(F)c5c(=O)[nH]cc(Cl)c5c4)c(N)nc3F)cc2)CC1 [I-489, 6-(2-amino-6-fluoro-5-(4-(4-isopropylpiperazin-1-yl)phenyl)pyridin-3-yl)-4-chloro-8-fluoroisoquinolin-1(2H)-one]"
16,11 to 100,"COC1CCN(Cc2cc(-c3cc(-c4cc5c(cc4F)C(=O)NCC5)c(N)nc3F)ccc2OCC2CC2)CC1 [I-509, 6-(2-amino-5-(4-(cyclopropylmethoxy)-3-((4-methoxypiperidin-1-yl)methyl)phenyl)-6-fluoropyridin-3-yl)-7-fluoro-3,4-dihydroisoquinolin-1(2H)-one]"
17,0.1 to 10,"CCN(CC)Cc1cc(-c2cc(-c3ccc4c(c3)CCNC4=O)c(N)nc2F)ccc1N1CCOCC1 [I-615, 6-(2-amino-5-(3-((diethylamino)methyl)-4-morpholinophenyl)-6-fluoropyridin-3-yl)-3,4-dihydroisoquinolin-1(2H)-one]"
18,11 to 100,"Nc1nc(F)c(-c2ccc(N3CCOCC3)c(CN3CCCC3)c2)cc1-c1cc2c(cc1F)C(=O)NCC2 [I-492, 6-(2-amino-6-fluoro-5-(4-morpholino-3-(pyrrolidin-1-ylmethyl)phenyl)pyridin-3-yl)-7-fluoro-3,4-dihydroisoquinolin-1(2H)-one]"
19,11 to 100,"CN(C)Cc1cc(-c2cc(-c3ccc4c(c3)CCNC4=O)c(N)nc2F)cnc1N1CCOCC1 [I-612, 6-(6-amino-5′-((dimethylamino)methyl)-2-fluoro-6′-morpholino-[3,3′-bipyridin]-5-yl)-3,4-dihydroisoquinolin-1(2H)-one]"
20,11 to 100,"Nc1nc(F)c(-c2ccc(N3CCOCC3)c(CN3CCC3)c2)cc1-c1cc2c(cc1F)C(=O)NCC2 [I-550, 6-(2-amino-5-(3-(azetidin-1-ylmethyl)-4-morpholinophenyl)-6-fluoropyridin-3-yl)-7-fluoro-3,4-dihydroisoquinolin-1(2H)-one]"
21,0.1 to 10,"COCCN(C)Cc1cc(-c2cc(-c3ccc4c(c3)CCNC4=O)c(N)nc2F)ccc1C1CCOCC1 [I-573, 6-(2-amino-6-fluoro-5-(3-(((2-methoxyethyl)(methyl)amino)methyl)-4-(tetrahydro-2H-pyran-4-yl)phenyl)pyridin-3-yl)-3,4-dihydroisoquinolin-1(2H)-one]"
22,11 to 100,"Cc1nc2cc(-c3cc(-c4ccc(N5C[C@@H](C)N(C)[C@@H](C)C5)cc4)c(F)nc3N)cc(F)c2c(=O)[nH]1 [I-501, 7-(2-amino-6-fluoro-5-(4-((3R,5S)-3,4,5-trimethylpiperazin-1-yl)phenyl)pyridin-3-yl)-5-fluoro-2-methylquinazolin-4(3H)-one]"
23,11 to 100,"CCN(C)Cc1c(N2CCOCC2)ccc(-c2cc(-c3ccc4c(c3)CCNC4=O)c(N)nc2F)c1F [I-610, 6-(2-amino-5-(3-((ethyl(methyl)amino)methyl)-2-fluoro-4-morpholinophenyl)-6-fluoropyridin-3-yl)-3,4-dihydroisoquinolin-1(2H)-one]"
24,> 1000,"Nc1nc(F)c(-c2ccc(C3=CCOCC3)cc2C2CNC(=O)C2)cc1-c1cc2c(cc1F)C(=O)NCC2 (stereo not shown) [I-478, 6-(2-amino-5-(4-(3,6-dihydro-2H-pyran-4-yl)-2-(5-oxopyrrolidin-3-yl)phenyl)-6-fluoropyridin-3-yl)-7-fluoro-3,4-dihydroisoquinolin-1(2H)-one]"
25,0.1 to 10,"COCCN(C)Cc1cc(-c2cc(-c3cc4c(cc3F)C(=O)NCC4)c(N)nc2F)ccc1C1CCOCC1 [I-574, 6-(2-amino-6-fluoro-5-(3-(((2-methoxyethyl)(methyl)amino)methyl)-4-(tetrahydro-2H-pyran-4-yl)phenyl)pyridin-3-yl)-7-fluoro-3,4-dihydroisoquinolin-1(2H)-one]"
26,11 to 100,"Cc1nc2cc(-c3cc(-c4ccc(N5CCOCC5)c(CN(C)C)c4)c(F)nc3N)cc(F)c2c(=O)[nH]1 [I-475, 7-(2-amino-5-(3-((dimethylamino)methyl)-4-morpholinophenyl)-6-fluoropyridin-3-yl)-5-fluoro-2-methylquinazolin-4(3H)-one]"
27,> 1000,"CN1CCc2c(cccc2-c2cc(-c3ccc4c(c3)CCNC4=O)c(N)nc2F)C1 [I-463, 6-(2-amino-6-fluoro-5-(2-methyl-1,2,3,4-tetrahydroisoquinolin-5-yl)pyridin-3-yl)-3,4-dihydroisoquinolin-1(2H)-one]"

row,Compound,IC50 [nM]
1,"CN(C)Cc1cc(-c2cc(-c3cc4c(cc3F)C(=O)NCC4)c(N)nc2F)ccc1OCCCC(F)F [I-525, 6-(2-amino-5-(4-(4,4-difluorobutoxy)-3-((dimethylamino)methyl)phenyl)-6-fluoropyridin-3-yl)-7-fluoro-3,4-dihydroisoquinolin-1(2H)-one]",11 to 100
